Experimental data taken from PubChem BioAssay (NCI).
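Step 1: Grow cells in 96-well plates. Step 2: Expose to compound for 48 hours at 5 concentrations. Step 3: Interpolate endpoints linearly; if unreached, use highest concentration. The concentration for 50% growth inhibition is given as GI50. TGI marks complete inhibition of growth.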

Columns and labels:
Experiment in all cases: NCI-60 cell line screen, 48 h
K-562 leukemia = tested on: K-562 leukemia
SF-295 CNS = tested on: SF-295 CNS
LXFL 529 NSCLC = tested on: LXFL 529 NSCLC
EKVX NSCLC = tested on: EKVX NSCLC
KM12 colon = tested on: KM12 colon
MALME-3M melanoma = tested on: MALME-3M melanoma
DLD-1 colon = tested on: DLD-1 colon
MCF7 breast = tested on: MCF7 breast
DU-145 prostate = tested on: DU-145 prostate
T-47D breast = tested on: T-47D breast

Row | SMILES | GI50 (K-562 leukemia) [µM] | TGI (K-562 leukemia) [µM] | GI50 (SF-295 CNS) [µM] | TGI (SF-295 CNS) [µM] | GI50 (LXFL 529 NSCLC) [µM] | TGI (LXFL 529 NSCLC) [µM] | GI50 (EKVX NSCLC) [µM] | TGI (EKVX NSCLC) [µM] | GI50 (KM12 colon) [µM] | TGI (KM12 colon) [µM] | GI50 (MALME-3M melanoma) [µM] | TGI (MALME-3M melanoma) [µM] | GI50 (DLD-1 colon) [µM] | TGI (DLD-1 colon) [µM] | TGI (MCF7 breast) [µM] | TGI (DU-145 prostate) [µM] | TGI (T-47D breast) [µM]
1 | CC(=O)[CH-]C(C)=O.CC(=O)[CH-]C(C)=O.[CH2-]CCC.[CH2-]CCC.[Sn+4] | 0.283 | > 100 | 1.45 | 2.8 | 0.0493 | 0.185 | 0.901 | 2.27 | 1.11 | 2.33 | 0.2 | 1.07 | 0.475 | 1.58 |  |  | 
2 | [Cl-].[O-]/N=C(\c1ccccc1)c1ccccn1.[O-]/N=C(\c1ccccc1)c1ccccn1.[O-]/N=C(\c1ccccc1)c1ccccn1.[Sm+3] | 32.6 | > 100 | 18.7 | 79.9 | 41.4 | > 100 | 29.4 | > 100 | 17.6 | > 100 | 24.6 | 88.6 | 33 | > 100 |  |  | 
3 | COc1ccc2c(CN3CCCCC3CO)cc3cc(OC)c(OC)cc3c2c1 (stereo not drawn) |  | 10.1 |  | 13.6 |  | 16.8 |  | 19.7 |  | 16.2 |  | 16.9 |  | > 100 |  |  | 
4 | CCCCCC(=O)C(C)C1=Nc2nnc(CCCCCCCc3nnc4n3C(=O)C(C(C)C(=O)CCCCC)=N4)n2C1=O (stereo not drawn) |  | > 100 |  | > 100 |  | > 100 |  | > 100 |  | > 100 |  | > 100 |  | > 100 |  |  | 
5 | CC(C)=CC(=O)C/C(=N\NC(N)=S)C(=O)Nc1ccc(Cl)cc1 |  | > 100 |  | > 100 |  | > 100 |  | > 100 |  | > 100 |  | > 100 |  | > 100 |  |  | 
6 | Cc1nc(Nc2ccc(Cl)cc2)sc1C(=O)NNc1ccc([N+](=O)[O-])cc1[N+](=O)[O-] |  | 46.1 |  | 38.5 |  | 30.9 |  | 32.6 |  | 33.9 |  | 36.2 |  | 28 |  |  | 
7 | COCCCNC(=O)C1C(=O)N(CCCOC)C(=O)/C1=N\N (stereo not drawn) |  | > 100 |  | > 100 |  | > 100 |  | > 100 |  | > 100 |  | > 100 |  | > 100 |  |  | 
8 | C#Cc1cccc(N2C(=O)CCC2=O)c1 |  | 20.9 |  | 30.1 |  | 15.8 |  | 34.3 |  | 19.5 |  | 28.2 |  | 50.1 | 44.5 | 28.3 | 56.8
9 | CCOC(=O)C1N(S(=O)(=O)c2ccc(C)cc2)CCC12c1ccccc1N(C(C)=O)C2c1ccc(OC)c(OC)c1 (stereo not drawn) |  | > 100 |  | > 100 |  | > 100 |  | > 100 |  | > 100 |  | > 100 |  | > 100 |  |  | 
10 | COc1ccc(Nc2nc3ccc(C(F)(F)F)cc3nc2-c2ccccc2)cc1OC |  | > 100 |  | 44.9 |  | > 100 |  | 80.3 |  | > 100 |  | > 100 |  | > 100 |  |  | 
11 | CC(C)CC(NC(=O)c1cccc(O)c1O)C(=O)NCc1cc(CNC(=O)C(CC(C)C)NC(=O)c2cccc(O)c2O)cc(CNC(=O)C(CC(C)C)NC(=O)c2cccc(O)c2O)c1 (stereo not drawn) |  | > 100 |  | 38.6 |  | 13.8 |  | 69.5 |  | 41.9 |  | 39.5 |  | > 100 |  |  | 
12 | COc1ccc2c(c1)N1CCc3cc(OC)c(OC)cc3C1C2 (stereo not drawn) |  | > 100 |  | > 100 |  | > 100 |  | > 100 |  | > 100 |  | > 100 |  | > 100 |  |  | 
13 | CN(C)CC(C)(C)C(=O)/C=C/c1ccc(/C=C/C(=O)C(C)(C)CN(C)C)cc1 |  | 0.594 |  | 3.84 |  | 2.4 |  | 3.26 |  | 3.25 |  | 3.97 |  | 1.01 |  |  | 
14 | CCCCCC[N+](C)(C)Cc1ccc(C[N+](C)(C)CCCCCC)cc1 |  | 5.65 |  | 10.5 |  | 15.4 |  | 27.7 |  |  |  | 97.8 |  | 26.5 |  |  | 
15 | C=C1C(=O)O[C@@H]2C[C@@H](C)[C@@H]3C=CC(=O)[C@@]3(C)[C@@H](OC(=O)CC(=O)O[C@H]3[C@@H]4C(=C)C(=O)O[C@@H]4C[C@@H](C)[C@@H]4C=CC(=O)[C@]43C)[C@H]12 |  | < 0.0322 |  | 0.302 |  | 0.0343 |  | 0.32 |  | 0.16 |  | 0.0368 |  | < 0.0215 | 0.21 | 12.9 | 2.73
16 | O=c1nc(/C=C/c2ccccc2Cl)cc2n1CCN2CCO |  | > 100 |  | > 100 |  | > 100 |  | > 100 |  | > 100 |  | > 100 |  | > 100 |  |  | 
17 | O=C1c2ccccc2C(Br)(Br)c2ccccc21 |  | > 31.6 |  | > 31.6 |  | > 31.6 |  | > 100 |  | > 100 |  | > 31.6 |  | > 31.6 |  |  | 
